A word on the inhibition: it is the share of the control response that was lost under treatment.

Common to all, as to type: functional
The subject of assay [1] is Amaranthus retroflexus. The assay is described as follows: Post-emergence herbicidal activity against Amaranthus retroflexus assessed as inhibition at 150 g/hectare by green house assay.
In assay [2] the test system is Ammannia baccifera. The assay is described as follows: Post-emergence herbicidal activity against Ammannia baccifera assessed as inhibition at 150 g/hectare by green house assay.
In assay [3] the test system is Radish. In words: Post-emergence herbicidal activity against Raphanus sativus (radish) assessed as inhibition at 150 g/hectare by green house assay.
In assay [4] the test system is Brassica rapa subsp. oleifera. In words: Post-emergence herbicidal activity against Brassica rapa subsp. oleifera assessed as inhibition at 150 g/hectare by green house assay.
For assay [5], the system named is Brassica oleracea. The assay is described as follows: Post-emergence herbicidal activity against Brassica oleracea assessed as inhibition at 75 g/hectare by green house assay.
Assay [6] relates to Chenopodium album. The assay is described as follows: Post-emergence herbicidal activity against Chenopodium album assessed as inhibition at 75 g/hectare by green house assay.
The subject of assay [7] is Radish. In words: Post-emergence herbicidal activity against Raphanus sativus (radish) assessed as inhibition at 75 g/hectare by green house assay.
Assay [8] relates to Chenopodium album. In words: Post-emergence herbicidal activity against Chenopodium album assessed as inhibition at 150 g/hectare by green house assay.
The subject of assay [9] is Brassica rapa subsp. chinensis. In words: Post-emergence herbicidal activity against Brassica rapa subsp. chinensis assessed as inhibition at 75 g/hectare by green house assay.
Assay [10] deals with Brassica rapa subsp. oleifera. The assay is described as follows: Post-emergence herbicidal activity against Brassica rapa subsp. oleifera assessed as inhibition at 75 g/hectare by green house assay.
The test system of assay [11] is Brassica oleracea. The assay is described as follows: Post-emergence herbicidal activity against Brassica oleracea assessed as inhibition at 150 g/hectare by green house assay.
Assay [12] has as its system Brassica juncea. In words: Post-emergence herbicidal activity against Brassica juncea assessed as inhibition at 150 g/hectare by green house assay.
For assay [13], the system named is Pontederia vaginalis. The assay is described as follows: Post-emergence herbicidal activity against Monochoria vaginalis assessed as inhibition at 150 g/hectare by green house assay.
Assay [14] deals with Ipomoea nil. The assay is described as follows: Post-emergence herbicidal activity against Ipomoea nil (Japanese morning glory) assessed as inhibition at 150 g/hectare by green house assay.
The test system of assay [15] is Brassica juncea. In words: Post-emergence herbicidal activity against Brassica juncea assessed as inhibition at 75 g/hectare by green house assay.
Assay [16] has as its system Ammannia baccifera. The assay is described as follows: Post-emergence herbicidal activity against Ammannia baccifera assessed as inhibition at 75 g/hectare by green house assay.
For assay [17], the system named is Brassica rapa subsp. chinensis. In words: Post-emergence herbicidal activity against Brassica rapa subsp. chinensis assessed as inhibition at 150 g/hectare by green house assay.
In assay [18] the test system is Ipomoea nil. The assay is described as follows: Post-emergence herbicidal activity against Ipomoea nil (Japanese morning glory) assessed as inhibition at 75 g/hectare by green house assay.
Assay [19] concerns Pontederia vaginalis. In words: Post-emergence herbicidal activity against Monochoria vaginalis assessed as inhibition at 75 g/hectare by green house assay.
The subject of assay [20] is Amaranthus retroflexus. The assay is described as follows: Post-emergence herbicidal activity against Amaranthus retroflexus assessed as inhibition at 75 g/hectare by green house assay.

`O=C(O)CNCP(=O)(O)O` [GLYPHOSATE]: the inhibition at 150 g/ha in assay [1] was found to be 90%; in [2], 100%; in assay [3], 65%; in [4], 100%; in [8], 90%; in assay [11], 80%. Besides, the inhibition at 150 g/ha in [12] is 80%; in assay [13], 100%; in [14] it was 60%; in assay [17], 80%. The inhibition at 75 g/ha was 70% in assay [5]; 70% in [6]; 60% in [7]; 70% in assay [9]; 100% in assay [10]; 30% in assay [15]. Also, the inhibition at 75 g/ha in [16] was 100%; in assay [18], 60%; in assay [19], 100%; in assay [20], 90%.

Source of the values: ChEMBL document CHEMBL3044653, “Synthesis and herbicidal activity of 2-(substituted phenoxyacetoxy)alkyl-5,5-dimethyl-1,3,2-dioxaphosphinan-2-one” (J Agric Food Chem, 2012).
